These results are taken from US20230099204A1, “PHARMACEUTICAL COMPOSITION FOR PREVENTION OR TREATMENT OF CANCER IN WHICH KRAS MUTATION AND ACTIVATED RON ARE PRESENT” (WELLMARKER BIO CO., LTD., priority 2020, published 2023).

Where a name gives a salt, the structure may show the parent alone. Bounds are passed on as bounds.

For one assay, the system named is HCT15. The assay can be described thus: MTS assay, cytotoxicity on colorectal cancer cell line HCT15. The assay is classed as cell-based. The conditions noted are these: Homo sapiens, HCT-15, RON Δ160, KRAS G13D, 72 hours. Here is the method:
(§1) MTS assay was performed to compare cytotoxicity of the compounds of Example 1, Example 2, Example 3, Example 4, Example 5, Example 6, and positive control 1 on a colorectal cancer cell line, and a cell death rate of the colorectal cancer cell line was analyzed to compare anticancer activity of the compounds.
(§2) The MTS assay was performed by seeding each colorectal cell line in a 96-well plate at 1,000 cells per well, and after 24 hours, performing treatment with the compounds of Examples 1 to 6 and positive control 1 at various concentrations (0.000001 μM to 10 μM) in 100 μL of 10% FBS-RPMI medium (WELGENE Inc.) per well. The cells were incubated for 72 hours. Then, 20 μL of MTS solution (Promega) was added thereto, and the cells were incubated for 2 hours. Then, the absorbance was measured at 490 nm. The IC50 values for the compounds of Examples 1 to 6 and positive control 1 were calculated using GraphPad Prism™ 5 to investigate cytotoxicity.

The test system of assay [1] is T84. The assay can be described thus: MTS assay, cytotoxicity on colorectal cancer cell line T84. The assay is classed as cell-based. Conditions: Homo sapiens, RON Δ165, KRAS G13D, 72 hours. Here is the method: as §1, §2
For orientation: Tetrazolium dyes change colour on reduction, which living cells bring about.

For the next assay, the system named is HCT8. The assay can be described thus: MTS assay, cytotoxicity on colorectal cancer cell line HCT8. Type of assay: cell-based. The conditions noted are these: Homo sapiens, HCT-8, RON wt, KRAS G13D, 72 hours. Here is the method:
as §1, §2

The next assay has as its system DLD1. In words: MTS assay, cytotoxicity on colorectal cancer cell line DLD1. Type of assay: cell-based. Conditions: Homo sapiens, DLD-1, RON wt, KRAS G13D, 72 hours. Here is the method:
as §1, §2

The next assay deals with SW480. The assay can be described thus: MTS assay, cytotoxicity on colorectal cancer cell line SW480. Type of assay: cell-based. The conditions noted are these: Homo sapiens, RON Δ155, KRAS G12V, 72 hours. Here is the method: as §1, §2
The test system of the next assay is SNUC2A. The assay can be described thus: MTS assay, cytotoxicity on colorectal cancer cell line SNUC2A. Conditions: RON mutation negative, KRAS G12D, 72 hours. Type of assay: cell-based. Here is the method:
as §1, §2

For assay [2], the system named is SW620. The assay can be described thus: MTS assay, cytotoxicity on colorectal cancer cell line SW620. The assay is classed as cell-based. The conditions noted are these: Homo sapiens, SW-620, RON Δ155, KRAS G12V, 72 hours. Here is the method:
as §1, §2

The test system of assay [3] is colorectal cancer cell line. The assay can be described thus: MTS assay, summary over the colorectal cancer cell lines. Conditions: summary in words of Table 1. Type of assay: cell-based. Here is the method: as §1, §2
For assay [4], the system named is SW620. The assay can be described thus: Cell death induction, trypan blue cell counting, SW620. The conditions noted are these: 1 μM, 48 hours; for cell death rate: SW620 (KRAS G12V/mRON Δ155), FIG. 2. Type of assay: cell-based, human. Here is the method:
(§3) Based on the results above, to identify the cell death-inducing ability of the compounds of Example 1 and positive control 1, which are representative materials, preparation was performed by seeding respective colorectal cancer cell lines SNU-[…], HCT8, T84, and SW620 onto 60-mm plates at 3×10^5 cells, and then incubation was performed for 24 hours. Thereafter, treatment with each of Example 1 and positive control 1 was performed at 1μM and incubation was performed for 48 hours. In addition, preparation was performed by seeding the cell line SW620 onto a 60-mm plate at 3×10^5 cells, and then incubation was performed for 24 hours. Thereafter, treatment with each of Example 1, positive control 1, positive control 2, and positive control 3 was performed at 1 μM. After 48 hours, the cells and cell suspensions were collected by treatment with trypsin, resuspended in 1× PBS and stained using a trypan blue solution (Sigma, cat# T8154). The stained cells were counted using a hemocytometer. Cell counting was repeated, and the mean and the standard deviation were calculated.

Assay [5] relates to HCT8 (KRAS G13D/pTyr-wtRON(+)). In words: Cell line HCT8-transplanted mouse model. Type of assay: in vivo, BALB/c nude mice. Conditions: 10 mg/kg, oral, once a day for 4 weeks. Here is the method: 5-Week-old female BALB/c nude mice were purchased and acclimatized for 1 week. Then, human colorectal cancer patient-derived cell line SW620 (KRAS
G12V/mRON Δ155) at 5×10^6 cells/mouse was injected subcutaneously (100 μL) into the right dorsal side of the mice. The compound of Example 1 was orally administered when the tumor reached a size of about 100 mm^3. The drug was administered once a day for 4 weeks, and tumor size and mouse body weight were measured twice a week. After completion of the drug administration, the experimental animals were euthanized, and then the tumors were extracted and weighed for comparative analysis.
A portion of the extracted tumor tissue was fixed in 10% formalin and processed into a paraffin block. Then, the block was made into sections. Staining of the slide was performed through immunochemical staining. Another portion of the extracted tumor tissue was subjected to lysis, and then Western blotting was used to identify changes in expression of respective proteins.
The experiment was conducted in the same method as the procedure of Experimental Example 3, except that human colorectal cancer patient-derived cell line HCT8 (KRAS G13D/pTyr-wtRON(+)) was used in place of the human colorectal cancer patient-derived cell line SW620 (KRAS G12V/mRON Δ155), and the respective compounds of Example 1, positive control 1, and positive control 2 were administered.

Assay [6] relates to T84. The assay can be described thus: Cell death induction, trypan blue cell counting, T84. Conditions: T84 with a RON mutation; 1 μM; 48 hours; FIG. 1. Type of assay: cell-based. Here is the method: as §3, with “hours.” for “hours. In addition, preparation was performed by seeding the cell line SW620 onto a 60-mm plate at 3×10^5 cells, and then incubation was performed for 24 hours. Thereafter, treatment with each of Example 1, positive control 1, positive control 2, and positive control 3 was performed at 1 μM.”

For orientation: IC50 means the concentration that gives 50% inhibition. A lower IC50 goes with higher potency. Regarding `CCOc1ccn(-c2ccccc2)c(=O)c1C(=O)Nc1ccc(Oc2ccnc3cc(-c4ccc(CNCCOC)cn4)sc23)c(F)c1` [Example 2, 4-ethoxy-N-(3-fluoro-4-{[2-(5-{[(2-methoxyethyl)amino]methyl}pyridine-2-yl)thieno[3,2-b]pyridine-7-yl]oxy}phenyl)-2-oxo-1-phenyl-1,2-dihydropyridine-3-carboxamide hydrochloride], the IC50 with HCT15 came out at 220 nM; with T84 [1], 210 nM; in the assay on HCT8, 260 nM; with DLD1 it was 210 nM; with SW480, 1250 nM; with SNUC2A it was 4440 nM. For the same compound, the IC50 in the assay with SW620 [2] came to 370 nM.

Take `CCOc1ccn(-c2ccccc2)c(=O)c1C(=O)Nc1ccc(Oc2ccnc3cc(-c4ccc(CN5CCN(C)CC5)cn4)sc23)c(F)c1` [Example 3, 4-ethoxy-N-{3-fluoro-4-[(2-{5-[(4-methylpiperazin-1-yl)methyl]pyridin-2-yl}thieno[3,2-b]pyridin-7-yl)oxy]phenyl}-2-oxo-1-phenyl-1,2-dihydropyridine-3-carboxamide hydrochloride]: the IC50 is 390 nM with HCT15; 220 nM in the assay on T84 [1]; 480 nM in the assay on HCT8; 300 nM in the assay on DLD1; 660 nM with SW480; 4600 nM in the assay with SNUC2A. The IC50 with SW620 [2] turned out to be 260 nM.

As to `Cn1cnc(-c2cc3nccc(Oc4ccc(NC(=O)c5c6c(cn(-c7ccc(F)cc7)c5=O)CCO6)cc4F)c3s2)c1` [Example 4], the “efficiency / response in MTS assay over the cell lines” value in [3] was “high efficiency in the cell lines (HCT8 and DLD-1)”. For the same compound, the IC50 stood at 1270 nM with HCT15; 170 nM with T84 [1]; 1200 nM with HCT8; 660 nM in the assay with DLD1; 670 nM in the assay with SW480; 7530 nM in the assay on SNUC2A. The compound also showed an IC50 with SW620 [2] greater than 10000 nM.

As for `COc1cc2c(Oc3ccc(NC(=O)c4c5c(cn(-c6ccc(F)cc6)c4=O)CCO5)cc3F)ccnc2cc1OCCN1CCOCC1` [Example 5, N-(3-fluoro-4-((6-methoxy-7-(2-morpholinoethoxy)quinolin-4-yl)oxy)phenyl)-5-(4-fluorophenyl)-6-oxo-2,3,5,6-tetrahydrofuro[3,2-c]pyridine-7-carboxamide], the IC50 was found to be 390 nM in the assay with HCT15; 810 nM in the assay with T84 [1]; 780 nM in the assay on HCT8; 230 nM in the assay on DLD1; 110 nM in the assay on SW480; 3820 nM in the assay on SNUC2A. This compound also displayed a 50% inhibitory concentration (IC50) with SW620 [2] of 1000 nM.

Consider `COc1cc2c(Oc3ccc(NC(=O)c4c5c(cn(-c6ccc(F)cc6)c4=O)CCO5)cc3F)ccnc2cc1OCCCN1CC(C#N)C1` [Example 6, N-(4-((7-(3-(3-cyanoazetidine-1-yl)propoxy)-6-methoxyquinoline-4-yl)oxy)-3-fluorophenyl)-5-(4-fluorophenyl)-6-oxo-2,3,5,6-tetrahydrofuro[3,2-c]pyridine-7-carboxamide], for which the half-maximal inhibitory concentration (IC50) in the assay with HCT15 stood at 140 nM; in the assay on T84 [1], 200 nM; in the assay on HCT8, 330 nM; in the assay with DLD1, 170 nM; in the assay with SW480, 320 nM; in the assay with SNUC2A it was 1320 nM. Besides, the IC50 in the assay on SW620 [2] came to 110 nM.

On to `CCOc1ccn(-c2ccc(F)cc2)c(=O)c1C(=O)Nc1ccc(Oc2ccnc(N)c2Cl)c(F)c1` [Positive control 1, N-{4-[(2-amino-3-chloro-4-pyridinyl)oxy]-3-fluorophenyl}-4-ethoxy-1-(4-fluorophenyl)-2-oxo-1,2-dihydro-3-pyridinecarboxamide, reference compound], for which, in the assay on SW620 [4], the cell death rate entry was “cell death was not induced”. In addition, the “cell death induction efficacy” value in the assay with SW620 [4] (SW620 with a RON mutation, FIG. 1) was “little response”; in the assay on T84 [6], “little response”. Further, the “Tumor growth inhibition (TGI, %)” value in assay [5] was −7.5 ± 36.3%. The “efficiency / response in MTS assay over the cell lines” value in assay [3] is “high IC50 values in most cell lines”. Also, the IC50 in the assay on HCT15 is 3240 nM; with T84 [1], 8400 nM; in the assay with HCT8, 7320 nM; in the assay with DLD1 it was 4720 nM; in the assay on SW480, 3540 nM; with SNUC2A it was greater than 10000 nM. In addition, the IC50 in the assay with SW620 [2] was determined as 5000 nM.

On to `C[C@@H](Oc1cc(-c2cnn(C3CCNCC3)c2)cnc1N)c1c(Cl)ccc(F)c1Cl` [Positive control 2, reference compound], for which, in the assay with SW620 [4], the cell death rate result is reported as “cell death was not induced”. In assay [5], the “Tumor growth inhibition (TGI, %)” value came to 23.2 ± 7.8%.

Consider `COc1cc2nccc(Oc3ccc(NC(=O)C4(C(=O)Nc5ccc(F)cc5)CC4)cc3)c2cc1OC` [Positive control 3, N-(4-{[6,7-bis(methyloxy)quinoline-4-yl]oxy}phenyl)-N′-(4-fluorophenyl)cyclopropane-1,1-dicarboxamide], for which the cell death rate entry in the assay with SW620 [4] is given as “cell death was not induced”.
